Reference: article PMC12908707, “Pharmacodynamic effects and plasma pharmacokinetics of N, N-dimethyltryptamine after intranasal versus subcutaneous administration in male rats” (Psychopharmacology, 2025)
Read-outs that look alike come from different tables or passages of the source.

Columns and labels:
male Sprague-Dawley rats [1] = assay: Behavioral scoring: flat body posture (element of the 5-HT syndrome); format: in vivo
male Sprague-Dawley rats [2] = assay: Behavioral scoring: motor activity (summed motor scores); format: in vivo; conditions: IN or SC, 1, 3, 10 mg/kg; Dunnett's post hoc test
male Sprague-Dawley rats [3] = assay: Core body temperature by SC temperature transponder
male Sprague-Dawley rats [4] = assay: Behavioral scoring: wet dog shakes (proxy for 5-HT2A activation); format: in vivo; conditions: SC, 1 and 3 mg/kg
[5] = Plasma pharmacokinetics of DMT and DMT N-oxide after IN or SC DMT (LC-QQQ-MS, non-compartmental analysis); format: in vivo, male Sprague-Dawley rats; conditions: for AUC / Tmax / Cmax / half-life: male, Sprague-Dawley, rat, plasma DMT; for Cmax / half-life: plasma
Protocol: For the IN DMT experiments, blood samples (300 µL) were withdrawn via IV catheters immediately before (time zero) and at 5, 10, 20, 40, and 80 min after injection. For the SC DMT experiments, blood samples were withdrawn immediately before (time zero) and at 10, 20, 40, 80, and 160 min after injection. Samples were collected into 1 mL tuberculin syringes and transferred to 1.5 mL plastic tubes containing 5 µL of 1000 IU/mL heparin (Thomas Scientific) as an anticoagulant and 5 µL of 250 mM sodium metabisulfite as a preservative. Blood was centrifuged at 1000 g for 10 min at 4 °C. Plasma was decanted into cryovials and stored at − 80 °C until analysis. To maintain volume and osmotic homeostasis, rats received an equal volume of saline solution via the IV catheter after each blood withdrawal.
Samples were extracted using a basic solid phase extraction (SPE) procedure. Spiking solutions (final concentrations 0.1, 1.0 and 10 ng/µL) contained all analytes and were prepared by serial dilution in methanol from stock solutions. Calibration curves contained eight non-zero calibrators from 5 to 1000 ng/mL. Quality controls were assessed at 15, 60, 150, and 800 ng/mL. DMT-D4 (25 µL, 1.0 ng/µL) was utilized as the internal standard. Authentic rat plasma samples were stored at −80 °C prior to analysis.
Drug-free rat plasma was fortified with appropriate spiking solutions and aliquoted (150 µL) for extraction. Authentic rat plasma was assayed at 150 µL. Internal standard was added at a final concentration of 125 ng/mL. Samples were diluted with 1 mL phosphate buffer (0.1 M, pH 6) followed by centrifugation for 5 min at 4200 rpm, then extracted using Chromabond® SPE cartridges (200 mg, 3 mL)(Macherey-Nagel, Allentown, PA, USA). The columns were conditioned using methanol (2 mL), deionized water (2 mL), and phosphate buffer (0.1 M, pH 6, 2 mL). The buffered sample was added to the columns and impurities were removed using deionized water (1 mL), acetic acid (0.1 M, 1 mL), and methanol (1 mL). Analytes were eluted using 3 mL of dichloromethane: isopropanol: ammonia (78:20:2, v: v:v). The organic solvent was evaporated to dryness under nitrogen at 33 °C. Samples were reconstituted in 100 µL of initial mobile phase conditions (90 A:10B).

rats [6] = test system: rats; parameters: method as in Baumann and Rothman [1996]; Elmore et al. [2018]; conditions: SC, dose-related increases, ref Baumann and Rothman [1996], Elmore et al. [2018]; cited from earlier work
male and female rats = test system: male and female rats; parameters: method as in Tylš et al. [2016]; conditions: SC, ref Tylš et al. [2016]; cited from earlier work
rats [7] = test system: rats; parameters: method as in Lucki et al. ([1984]); conditions: intraperitoneal (IP), ref Lucki et al. ([1984]); cited from earlier work
[8] = inhaled or intranasal, 1 mg/kg IN, mean ± SEM, n = 5 rats
[9] = inhaled or intranasal, 3 mg/kg IN, mean ± SEM, n = 5 rats
[10] = inhaled or intranasal, 10 mg/kg IN, mean ± SEM, n = 5 rats
[11] = 1 mg/kg SC, mean ± SEM, n = 5 rats
[12] = 3 mg/kg SC, mean ± SEM, n = 5 rats
[13] = 10 mg/kg SC, mean ± SEM, n = 5 rats

CN(C)CCc1c[nH]c2ccccc12 [DMT, N,N-dimethyltryptamine]
flat body posture vs vehicle (male Sprague-Dawley rats [1]; IN, 3 and 10 mg/kg): increased above vehicle
flat body posture vs vehicle (male Sprague-Dawley rats [1]; SC, only at 10 mg/kg): increased
summed motor scores vs vehicle controls (male Sprague-Dawley rats [2]): no significant differences
body temperature nadir (hypothermic effect) (male Sprague-Dawley rats [3]; 10 mg/kg IN, sustained throughout the sampling period (80 min)): 34.4 °C
body temperature nadir (hypothermic effect) (male Sprague-Dawley rats [3]; 10 mg/kg SC, subsided by end of sampling period (160 min)): 34.2 °C
body temperature vs saline controls (male Sprague-Dawley rats [3]; IN, all doses, by 20 min post-treatment): significantly reduced temperature
wet dog shakes vs vehicle (male Sprague-Dawley rats [4]): increased compared to vehicle
predicted AUC ([5]; 10 mg/kg IN, ~3.3-times the measured AUC at 3 mg/kg): 2950 ng·min/mL
plasma concentrations of DMT by 80 min post-treatment ([5]; after all doses of IN DMT): below the LOD, or nearly so
AUC [5, 8]: 6.08 ng·h/mL
Tmax [5, 8]: 5 min
AUC [5, 9]: 14.9 ng·h/mL
Tmax [5, 9]: 6 min
AUC [5, 10]: 93.8 ng·h/mL
Tmax [5, 10]: 7 min
Cmax ([5]; inhaled or intranasal, 1 mg/kg, 1 mg/kg IN, mean ± SEM, n = 5 rats, read-out: Cmax): 30.1 ± 7.6 ng/mL
half-life ([5]; inhaled or intranasal, 1 mg/kg, 1 mg/kg IN, mean ± SEM, n = 5 rats, read-out: t1/2): 12.9 ± 2.8 min
Cmax ([5]; inhaled or intranasal, 3 mg/kg, 3 mg/kg IN, mean ± SEM, n = 5 rats, read-out: Cmax): 55.6 ± 15.4 ng/mL
half-life ([5]; inhaled or intranasal, 3 mg/kg, 3 mg/kg IN, mean ± SEM, n = 5 rats, read-out: t1/2): 14.3 ± 1.9 min
Cmax ([5]; inhaled or intranasal, 10 mg/kg, 10 mg/kg IN, mean ± SEM, n = 5 rats, read-out: Cmax): 268 ± 50.7 ng/mL
half-life ([5]; inhaled or intranasal, 10 mg/kg, 10 mg/kg IN, mean ± SEM, n = 5 rats, read-out: t1/2): 11.9 ± 1.4 min
Cmax ([5]; other: IN (intranasal, infused into the nares), 3 mg/kg, low IN doses (1 and 3 mg/kg), read-out: maximal DMT concentrations (Cmax) after low IN doses): 30.2 to 55.6 ng/mL
half-life ([5]; other: IN (intranasal, infused into the nares), 10 mg/kg, IN route, across 1, 3 and 10 mg/kg, read-out: t1/2 range): 11.9 to 14.3 min
Cmax ([5]; sc, 1 mg/kg, 1 mg/kg SC, mean ± SEM, n = 5 rats, read-out: Cmax): 19.6 ± 2.2 ng/mL
half-life ([5]; sc, 1 mg/kg, 1 mg/kg SC, mean ± SEM, n = 5 rats, read-out: t1/2): 45.5 ± 9.5 min
Cmax ([5]; sc, 3 mg/kg, 3 mg/kg SC, mean ± SEM, n = 5 rats, read-out: Cmax): 35.8 ± 2.4 ng/mL
half-life ([5]; sc, 3 mg/kg, 3 mg/kg SC, mean ± SEM, n = 5 rats, read-out: t1/2): 91.7 ± 26.4 min
Cmax ([5]; sc, 10 mg/kg, 10 mg/kg SC, mean ± SEM, n = 5 rats, read-out: Cmax): 81.6 ± 11.1 ng/mL
half-life ([5]; sc, 10 mg/kg, 10 mg/kg SC, mean ± SEM, n = 5 rats, read-out: t1/2): 123 ± 36.4 min
half-life ([5]; sc, 10 mg/kg, SC route, across 1, 3 and 10 mg/kg, read-out: t1/2 range): 45.5 to 123 min
AUC [5, 11]: 16.4 ng·h/mL
Tmax [5, 11]: 14 min
AUC [5, 12]: 47.7 ng·h/mL
Tmax [5, 12]: 22 min
AUC [5, 13]: 158 ng·h/mL
Tmax [5, 13]: 64 min

COc1cc(CC(C)N)c(OC)cc1I (centres unmarked) [DOI, 1-(4-iodo-2,5-dimethoxyphenyl)propan-2-amine]
wet dog shakes (rats [6]): more than ten episodes per hour

CN(C)CCc1c[nH]c2cccc(O)c12 [psilocin, 4-hydroxy-N, N-dimethyltryptamine]
flat body posture (male and female rats): causes flat body posture

COc1cc(CCN)c(OC)cc1I [2 C-I, 2-(4-iodo-2,5-dimethoxyphenyl)ethanamine]
wet dog shakes (rats [6]): more than ten episodes per hour

COc1ccc2[nH]cc(CCN(C)C)c2c1 [5-MeO-DMT, 5-methoxy-N, N-dimethyltryptamine]
5-HT behavioral syndrome (rats [7]): produces the 5-HT behavioral syndrome

C[N+](C)([O-])CCc1c[nH]c2ccccc12 [DMT N-oxide]
plasma concentrations of DMT N-oxide by 80 min post-treatment ([5]; after all doses of IN DMT): either undetectable or very low
